Experimental data: ChEMBL document CHEMBL3232730, “Design, synthesis and bioevaluation of N-trisubstituted pyrimidine derivatives as potent aurora A kinase inhibitors” (Eur J Med Chem, 2014)

How the values were obtained:
U-937 = assay: Antiproliferative activity against human U937 cells assessed as cell viability after 72 hrs by CCK8 assay; type: functional, cell-based; settings: Homo sapiens, U-937, 72 h; read-out: IC50
[1] = Antiproliferative activity against human MOLT4 cells assessed as cell viability after 72 hrs by CCK8 assay; type: functional, cell-based, MOLT-4; settings: Homo sapiens, MOLT-4, 72 h; read-out: IC50
MCF7 = assay: Antiproliferative activity against human MCF7 cells assessed as cell viability after 72 hrs by CCK8 assay; type: functional, cell-based; settings: Homo sapiens, MCF7, 72 h; read-out: IC50
MDA-MB-231 = assay: Antiproliferative activity against human MDA-MB-231 cells assessed as cell viability after 72 hrs by CCK8 assay; type: functional, cell-based; settings: Homo sapiens, MDA-MB-231, 72 h; read-out: IC50
[2] = Antiproliferative activity against human SKBR3 cells assessed as cell viability after 72 hrs by CCK8 assay; type: functional, cell-based, SK-BR-3; settings: Homo sapiens, SK-BR-3, 72 h; read-out: IC50
A549 = assay: Antiproliferative activity against human A549 cells assessed as cell viability after 72 hrs by CCK8 assay; type: functional, cell-based; settings: A549, 72 h
A-431 = assay: Antiproliferative activity against human A431 cells assessed as cell viability after 72 hrs by CCK8 assay; type: functional, cell-based; settings: Homo sapiens, A-431, 72 h; read-out: IC50
DU-145 = assay: Antiproliferative activity against human DU145 cells assessed as cell viability after 72 hrs by CCK8 assay; type: functional, cell-based; settings: Homo sapiens, DU-145, 72 h; read-out: IC50
PC-3 = assay: Antiproliferative activity against human PC3 cells assessed as cell viability after 72 hrs by CCK8 assay; type: functional, cell-based; settings: Homo sapiens, PC-3, 72 h; read-out: IC50
HeLa = assay: Antiproliferative activity against human HeLa cells assessed as cell viability after 72 hrs by CCK8 assay; type: functional, cell-based; settings: Homo sapiens, HeLa, 72 h; read-out: IC50
NCI-N87 = assay: Antiproliferative activity against human NCI-N87 cells assessed as cell viability after 72 hrs by CCK8 assay; type: functional, cell-based; settings: Homo sapiens, NCI-N87, 72 h; read-out: IC50
HCT-116 = assay: Antiproliferative activity against human HCT116 cells assessed as cell viability after 72 hrs by CCK8 assay; type: functional, cell-based; settings: Homo sapiens, HCT-116, 72 h; read-out: IC50
[3] = Cell cycle arrest in human CNE2 cells assessed as accumulation at G1 phase at 1 uM after 24 hrs by propidium iodide staining-based flow cytometric analysis (reference value: 52.5%); type: functional; settings: CNE-2
[4] = Cell cycle arrest in human CNE2 cells assessed as accumulation at S phase at 1 uM after 24 hrs by propidium iodide staining-based flow cytometric analysis (reference value: 14.7%); type: functional; settings: CNE-2
[5] = Cell cycle arrest in human CNE2 cells assessed as accumulation at G2/M phase at 1 uM after 24 hrs by propidium iodide staining-based flow cytometric analysis (reference value: 38.2%); type: functional; settings: CNE-2
[6] = Cell cycle arrest in human CNE2 cells assessed as accumulation at polyploid period at 1 uM after 24 hrs by propidium iodide staining-based flow cytometric analysis (reference value: […]); type: functional; settings: CNE-2
[7] = Cell cycle arrest in human CNE2 cells assessed as accumulation at G1 phase at 0.01 uM after 24 hrs by propidium iodide staining-based flow cytometric analysis (reference value: 52.5%); type: functional; settings: CNE-2
[8] = Cell cycle arrest in human CNE2 cells assessed as accumulation at S phase at 0.01 uM after 24 hrs by propidium iodide staining-based flow cytometric analysis (reference value: 14.9%); type: functional; settings: CNE-2
[9] = Cell cycle arrest in human CNE2 cells assessed as accumulation at G2/M phase at 0.01 uM after 24 hrs by propidium iodide staining-based flow cytometric analysis (reference value: 31%); type: functional; settings: CNE-2
[10] = Cell cycle arrest in human CNE2 cells assessed as accumulation at polyploid period at 0.01 uM after 24 hrs by propidium iodide staining-based flow cytometric analysis (reference value: […]); type: functional; settings: CNE-2
[11] = Cell cycle arrest in human CNE2 cells assessed as accumulation at G1 phase at 0.1 uM after 24 hrs by propidium iodide staining-based flow cytometric analysis (reference value: […]); type: functional; settings: CNE-2
[12] = Cell cycle arrest in human CNE2 cells assessed as accumulation at S phase at 0.1 uM after 24 hrs by propidium iodide staining-based flow cytometric analysis (reference value: 13.1%); type: functional; settings: CNE-2
[13] = Cell cycle arrest in human CNE2 cells assessed as accumulation at G2/M phase at 0.1 uM after 24 hrs by propidium iodide staining-based flow cytometric analysis (reference value: 24.5%); type: functional; settings: CNE-2
[14] = Cell cycle arrest in human CNE2 cells assessed as accumulation at polyploid period at 0.1 uM after 24 hrs by propidium iodide staining-based flow cytometric analysis (reference value: […]%); type: functional; settings: CNE-2
[15] = Cell cycle arrest in human CNE2 cells assessed as accumulation at G2/M phase after 24 hrs by propidium iodide staining-based flow cytometric analysis; type: functional; settings: CNE-2
[16] = Antiproliferative activity against human PANC1 cells assessed as cell viability after 72 hrs by CCK8 assay; type: functional, cell-based; settings: PANC-1, 72 h
Aurora kinase A = target: T1, Aurora kinase A (Homo sapiens, UniProt O14965); assay: Inhibition of Aurora A (unknown origin) using FAM-labeled peptide as substrate preincubated for 10 mins followed by substrate addition measured after 60 mins
T1 sequence (O14965 whole entry): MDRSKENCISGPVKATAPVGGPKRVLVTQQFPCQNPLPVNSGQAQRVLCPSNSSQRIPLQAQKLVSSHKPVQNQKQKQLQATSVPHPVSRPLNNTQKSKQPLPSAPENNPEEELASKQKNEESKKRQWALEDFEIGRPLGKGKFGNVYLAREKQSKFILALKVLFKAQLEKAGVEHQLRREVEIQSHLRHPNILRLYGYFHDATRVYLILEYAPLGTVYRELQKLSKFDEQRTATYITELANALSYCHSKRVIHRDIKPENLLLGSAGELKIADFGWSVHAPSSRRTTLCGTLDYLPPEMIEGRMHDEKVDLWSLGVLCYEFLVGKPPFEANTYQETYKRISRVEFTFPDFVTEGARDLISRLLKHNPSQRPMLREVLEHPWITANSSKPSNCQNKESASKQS

HL-60 = assay: Antiproliferative activity against human HL60 cells assessed as cell viability after 72 hrs by CCK8 assay; type: functional, cell-based; settings: Homo sapiens, HL-60, 72 h; read-out: IC50
K562 = assay: Antiproliferative activity against human K562 cells assessed as cell viability after 72 hrs by CCK8 assay; type: functional, cell-based; settings: Homo sapiens, K562, 72 h; read-out: IC50

Compound	IC50 (U-937)	IC50 [1]	IC50 (MCF7)	IC50 (MDA-MB-231)	IC50 [2]	IC50 (A549)	IC50 (A-431)	IC50 (DU-145)	IC50 (PC-3)	IC50 (HeLa)	IC50 (NCI-N87)	IC50 (HCT-116)	Activity [3]	Activity [4]	Activity [5]	Activity [6]	IC50 [16]	IC50 (Aurora kinase A)	IC50 (HL-60)	IC50 (K562)	also measured
COc1cccc(Nc2nc(Nc3cc(C)[nH]n3)cc(N3CCN(C)CC3)n2)c1	0.126 µM	0.192 µM	0.933 µM	0.24 µM	11.3 µM	1.69 µM	0.332 µM	2.65 µM	1.08 µM	0.546 µM	7.19 µM	0.923 µM	3.2%	1.7%	92.5%	2.4%	0.693 µM	0.022 µM	0.397 µM	0.509 µM	Activity [7]: 61.7%; Activity [8]: 8.1%; Activity [9]: 26.1%; Activity [10]: 4.6%; Activity [11]: 57.2%; Activity [12]: 6.9%; Activity [13]: 32.2%; Activity [14]: 4%; Activity [15]: Dose-dependent effect
Cc1cc(Nc2cc(N3CCN(C)CC3)nc(Nc3ccc(C(=O)OC(C)C)cc3)n2)n[nH]1	0.103 µM	0.0941 µM	1.32 µM	0.162 µM	4.02 µM	1.22 µM	0.44 µM	0.499 µM	1.36 µM	0.985 µM	6.32 µM	1.66 µM	1.9%	1.7%	89%	7%	1.32 µM	0.022 µM	0.181 µM	0.307 µM	
COC(=O)c1ccc(Nc2nc(Nc3cc(C)[nH]n3)cc(N3CCN(C)CC3)n2)cc1	0.119 µM	0.161 µM	1.78 µM	0.359 µM	8.65 µM	1.83 µM	0.532 µM	0.798 µM	1.5 µM	1.27 µM	17.8 µM	0.672 µM	1.7%	2.2%	84.3%	11.2%	1.08 µM	0.046 µM	0.203 µM	0.359 µM	
Cc1cc(Nc2cc(N3CCN(C)CC3)nc(Nc3cccc(Cl)c3)n2)n[nH]1	0.0217 µM	0.0201 µM	0.436 µM	0.0564 µM	2.29 µM	0.723 µM	0.0875 µM	3.09 µM	0.573 µM	0.425 µM	1.77 µM	0.736 µM	3.3%	1.7%	90.5%	3.9%	0.351 µM	0.01 µM	0.131 µM	0.0972 µM	
COc1ccc(Nc2nc(Nc3cc(C)[nH]n3)cc(N3CCN(C)CC3)n2)cc1	0.0923 µM	0.116 µM	2.75 µM	0.243 µM	14.7 µM	2.65 µM	0.385 µM	5.05 µM	2 µM	0.867 µM	18.9 µM	2.24 µM	3.4%	2.2%	90.6%	2.4%	1.12 µM	0.034 µM	0.335 µM	0.271 µM	
